Measured values reported in patent US7105521B2, “Eugenosedin-A based pharmacoligical agents” (Syn-Tech Chem & Pharm Co., Ltd., priority 2003, dated 2006).

How the values were obtained:
[1] = test system: α2 receptors; assay: Receptor binding, [3H]yohimbine, rat cortex; parameters: species or system Wistar rat
Protocol: (§1) Drugs and chemicals. […] Eugenosedin-A synthesized in this laboratory was solvated in 50% absolute alcohol, 10% propylene glycol and further diluted with distilled water. All of the [^3H] ligand was purchased from New England Nuclear Corp. (Boston, Mass., U.S.A.).
(§2) Receptor binding studies. […] The homogenate was pressure filtered through muslin. Filtrate was centrifuged at 1000 g for 10 min. Supernatant was centrifuged at 10,000 g for 12 min at 4° C. The second supernatant was centrifuged at 30,000 g for 15 min at 4° C. The final pellet was re-suspended in assay buffer (75 mM Tris HCl, 25 mM MgCl2, pH 7.4). Protein content was determined by Bradford's method. Radioligand agents and membranes (200–300 μg) were incubated for 60 min at 25° C. with or without the addition of nonspecific binding agents, in a 75 mM Tris HCl buffer with 25 mM MgCl2, to make a final volume of 500 μl. In competitive-binding experiments, the competing agent was added directly to the incubation mixture. Incubation was terminated by addition of 1 ml of ice-cold assay buffer followed by immediate filtration through Whatman GF/C glass fiber filters supported on a 12-port filter manifold (Millipore). The filters were immediately washed 3 times with 5 ml of ice-cold assay buffer and dried in an oven at 60° C. for 2 hours before adding 5 ml of Triton-toluene-based scintillation fluid. Membrane-bound radioligand trapped in the filters was counted in a Beckman LS6500 scintillation system (Fullerton, Calif., U.S.A) with an efficiency of 45%. In each experiment, nonspecifically bound radioligand agents were determined by incubating membrane protein. Specific binding for each sample was obtained by deducting this value from the total binding of radioligand agents.

[2] = biological target: 5-HT2A receptor (Rattus norvegicus, UniProt P14842); assay: Receptor binding, [3H]ketanserin, rat cortex; parameters: from tissue; host or cells: Wistar rat cortex membranes; species or system Wistar rat; conditions: [3H]ketanserin, rat cortex
Chain of 5-HT2A receptor (P14842 whole entry): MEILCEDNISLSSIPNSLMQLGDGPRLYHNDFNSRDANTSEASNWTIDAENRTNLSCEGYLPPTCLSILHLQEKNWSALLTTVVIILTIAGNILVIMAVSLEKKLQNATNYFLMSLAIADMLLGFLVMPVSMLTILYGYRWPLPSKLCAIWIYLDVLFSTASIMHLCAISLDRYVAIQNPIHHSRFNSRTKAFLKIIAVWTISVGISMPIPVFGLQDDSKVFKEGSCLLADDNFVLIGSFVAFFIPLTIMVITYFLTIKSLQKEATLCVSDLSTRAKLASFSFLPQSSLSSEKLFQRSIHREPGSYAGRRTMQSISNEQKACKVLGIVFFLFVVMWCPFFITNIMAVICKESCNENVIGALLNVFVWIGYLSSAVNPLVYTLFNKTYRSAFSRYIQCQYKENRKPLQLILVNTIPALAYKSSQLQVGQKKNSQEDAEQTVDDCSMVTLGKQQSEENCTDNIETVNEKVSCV
Protocol: as §1, §2

[3] = test system: α1 receptors; assay: Receptor binding, [3H]prazosin, rat cortex; parameters: species or system Wistar rat
Protocol: as §1, §2

[4] = LPS-induced hypotension; format: in vivo, Wistar rats; conditions: LPS 10 mg kg^−1 i.v.; for LPS-induced hypotension: 15 mg kg^−1 i.v.; for development of hypotension after LPS injection and normalization of BP: i.v. pretreatment; for second prolonged hypotensive phase after LPS: pretreatment 0.5 and 1 mg kg^−1 i.v.
Protocol: Intravenous injection. The experiments were carried out as previously described (Wu B N. et al., Biochem. Pharmacol., 48:101–109, 1994). In brief, Wistar rats weighing 250–300 grams were anesthetized with pentobarbital sodium (50 mg kg^−1, i.p.). Following tracheal cannulation, systemic arterial BP and HR were recorded from the femoral artery by a pressure transducer (model P10EZ; Spectramed, Oxnard, Calif., U.S.A.) connected to a recorder (GOULD, Valley View, Ohio, Model P50). Body temperature was maintained at 37° C. by an electric heating pad. A femoral vein was cannulated for intravenous injection of drugs and LPS (10 mg kg^−1).

[5] = test system: IL-1β; assay: Plasma cytokine immunoreactivity after LPS: IL-1β; format: in vivo, Wistar rats; conditions: 3 hours after LPS 10 mg kg^−1 i.v.; pretreatment (eugenosedin-A 1 mg kg^−1 i.v.)
Protocol: (§3) Plasma cytokine immunoreactivity and blood glucose. Blood was collected from venous cannula, injected into ice-cold heparinized Eppendorf tubes and centrifuged at 1500 rpm for 10 min at 4° C. Plasma supernatant was stored at −70° C. until analyzed. Solid phase enzyme immunoassay that specifically detects murine IL-1β, IL-6, IFN-γ and TNF-α was used with a detection limit of >10 pg/ml (Endogen, U.S.A). Pretreatment with eugenosedin-A and other agents was performed 15 minutes before intravenous injection of LPS. Blood was collected from venous cannula. Blood glucose was measured with a glucose test strip (Glucotide, Bayer, U.S.A) at 1, 3 and 5 hours.

[6] = test system: TNF-α; assay: Plasma cytokine immunoreactivity after LPS: TNF-α; format: in vivo, Wistar rats
Protocol: as §3

[7] = Blood glucose after LPS; format: in vivo, Wistar rats; conditions: for initial hyperglycemic response to LPS: blood glucose at 1 and 3 hours after LPS; for hypoglycemic response to LPS: blood glucose at 5 hours after LPS
Protocol: as §3

[8] = test system: IFN-γ; assay: Plasma cytokine immunoreactivity after LPS: IFN-γ; format: in vivo, Wistar rats; conditions: 1 hour after LPS administration
Protocol: as §3

[9] = Micro-injection in NTS: BP and HR; format: in vivo, rats; conditions: for pressor response and HR: NTS micro-injection, 0.03, 0.3 μmol, within 30 minutes after injection
From the text: Micro-injection in NTS. Rats were anesthetized and placed in a David-Kopf stereotaxic instrument. The cerebellum was exposed after removing the skin and occipital bone. […] At the end of experiments, the animals were sacrificed. The brain was removed and sectioned for histological confirmation of the drug application site.

[10] = Peroxyl radical scavenging, B-phycoerythrin/AAPH; format: biochemical
Protocol: The stoichiometric factors of the test compounds with hydrophilic peroxyl radicals were calculated by the equation as mentioned Ascorbic acid was used as a positive control.

[11] = Intra-cisternal injections: mean arterial BP and HR; format: in vivo, rats; conditions: for effect on mean arterial BP and HR: eugenosedin-A and trazodone 0.3, 0.03 μmol, yohimbine 0.03 μmol
Protocol: (§4) Intra-cisternal injections. […] Briefly, rats weighing 250–300 g were anaesthetized with pentobarbital sodium (50 mg kg^−1, i.p.) and mounted in a David-Kopf stereotaxic instrument (Yeh J L. et al., Brain. Res. Bull., 30:641–648, 1993). The calvarium was exposed and a 1 mm diameter trephine hole was drilled 1.8 mm lateral to the coronary and 1.5 mm posterior to the sagittal sutures. A cannula (0.7 mm O.D.) connected to a Hamilton syringe (RN-705, 5051) by PE-50 was advanced 4.7 mm into the brain using the electrode carrier.

[12] = test system: α2-adrenoceptor; assay: Intra-cisternal antagonism of clonidine-induced hypotension and bradycardia; format: in vivo, rats; conditions: for hypotensive effect of clonidine: given 15 min before clonidine injection
Protocol: as §4

[13] = 3 hours after LPS 10 mg kg^−1 i.v., pretreatment (eugenosedin-A 1 mg kg^−1 i.v.)
[14] = 5 hours after LPS 10 mg kg^−1 i.v., pretreatment

In the case of NCCc1c[nH]c2ccc(O)cc12 [Compound 5-HT, serotonin], the “order of α2 receptor binding potency” value [1] is reported as “prazosin >eugenosedin-A >ketanserin >methylsergide >propranolol and 5-HT”, the “order of potency on 5-HT2A receptors” value [2] is reported as “ketanserin >methylsergide >eugenosedin-A >5-HT >propranolol >prazosin” and the “binding affinity for α1 receptors” value [3] is reported as “lower binding affinities for α1 receptors”. For the same compound, the “order of α1 receptor binding potency” value [3] was “prazosin >ketanserin >eugenosedin-A >methylsergide, propranolol and 5-HT”.
For Cl.N=C(N)NN [aminoguanidine, aminoguanidine HCl], the LPS-induced hypotension [4] was “inhibited LPS-induced hypotension”, the “LPS-induced increase in IL-1β” value [5] was “significantly inhibited” and the “LPS-induced increase in TNF-α” value [6, 13] was “significantly inhibited”. The “initial hyperglycemic response to LPS” value [7] was “inhibited the initial hyperglycemic response to LPS” and the “hypoglycemic response to LPS” value [7] was “did not reverse the hypoglycemic response”.
In the case of O=C1O[C@H]([C@@H](O)CO)C(O)=C1O [ascorbic acid], the LPS-induced hypotension [4] is reported as “inhibited LPS-induced hypotension”, the “LPS-induced increase in IL-1β” value [5] is reported as “significantly inhibited” and the “LPS-induced increase in TNF-α” value [6, 13] is reported as “significantly inhibited”. For the same compound, the “LPS-induced production of IFN-γ” value [8] was “insignificantly enhanced”, the “initial hyperglycemic response to LPS” value [7] was “inhibited the initial hyperglycemic response to LPS” and the “hypoglycemic response to LPS” value [7] was “did not reverse the hypoglycemic response”.
With CNCCC(Oc1ccc(C(F)(F)F)cc1)c1ccccc1 (stereo not shown) [fluoxetine] the “pressor response and HR” value [9] was “mild, but significant, pressor responses and increased the HR”.
With O=C(c1ccc(F)cc1)C1CCN(CCn2c(=O)[nH]c3ccccc3c2=O)CC1 [ketanserin] the “binding affinity for α2-adrenoceptors” value [1] was “had binding affinities for α2-adrenoceptors”, the “order of α2 receptor binding potency” value [1] was “prazosin >eugenosedin-A >ketanserin >methylsergide >propranolol and 5-HT” and the “order of potency on 5-HT2A receptors” value [2] was “ketanserin >methylsergide >eugenosedin-A >5-HT >propranolol >prazosin”. For the same compound, the “order of α1 receptor binding potency” value [3] was “prazosin >ketanserin >eugenosedin-A >methylsergide, propranolol and 5-HT”.
With CC[C@@H](CO)NC(=O)[C@@H]1C=C2c3cccc4c3c(cn4C)C[C@H]2N(C)C1 [methysergide] the “binding affinity for α2-adrenoceptors” value [1] was “had binding affinities for α2-adrenoceptors”, the “order of α2 receptor binding potency” value [1] was “prazosin >eugenosedin-A >ketanserin >methylsergide >propranolol and 5-HT” and the “binding affinity for α1 receptors” value [3] was “lower binding affinities for α1 receptors”. The “order of α1 receptor binding potency” value [3] was “prazosin >ketanserin >eugenosedin-A >methylsergide, propranolol and 5-HT”.
With CC(C)NCC(O)COc1cccc2ccccc12 (stereo not shown) [propranolol] the “order of α2 receptor binding potency” value [1] was “prazosin >eugenosedin-A >ketanserin >methylsergide >propranolol and 5-HT” and the “order of α1 receptor binding potency” value [3] was “prazosin >ketanserin >eugenosedin-A >methylsergide, propranolol and 5-HT”.
For O=c1n(CCCN2CCN(c3cccc(Cl)c3)CC2)nc2ccccn12 [trazodone], the “development of hypotension after LPS injection and normalization of BP” value [4] was “normalized BP within 5 hours”, the “first immediate hypotensive phase after LPS” value ([4]; pretreatment 0.5 mg kg^−1 i.v.) was “not affected” and the “first immediate hypotensive phase after LPS” value ([4]; pretreatment 1 mg kg^−1 i.v.) was “attenuated it”. For the same compound, the “second prolonged hypotensive phase after LPS” value [4] was “significantly reduced”, the “pressor response and HR” value [9] was “mild, but significant, pressor responses and increased the HR” and the “LPS-induced increase in IL-1β” value [5] was “significantly inhibited”. The “LPS-induced increase in TNF-α” value [6, 13] was “significantly inhibited”, the “LPS-induced increase in TNF-α” value [6, 14] was “significantly reduced” and the “scavenging of AAPH-derived peroxyl radicals (B-phycoerythrin fluorescence, lag time)” value [10] was “did not scavenge peroxyl radicals”. The “effect on mean arterial BP and HR” value [11] was “increased mean arterial BP and HR” and the “hypotensive effect of clonidine” value [12] was “antagonized the hypotensive effect of clonidine”.
With COC(=O)[C@@H]1[C@H]2C[C@H]3c4[nH]c5ccccc5c4CCN3C[C@@H]2CC[C@@H]1O [yohimbine] the “development of hypotension after LPS injection and normalization of BP” value [4] was “normalized BP within 5 hours”, the “first immediate hypotensive phase after LPS” value ([4]; pretreatment 0.5 mg kg^−1 i.v.) was “not affected” and the “first immediate hypotensive phase after LPS” value ([4]; pretreatment 1 mg kg^−1 i.v.) was “attenuated it”. The “second prolonged hypotensive phase after LPS” value [4] was “significantly reduced”, the HR increase ([9]; NTS micro-injection, 0.03 μmol) was “up to 78 bpm” and the pressor response ([9]; NTS micro-injection, 0.03 μmol) was “up to 13 mmHg”. For the same compound, the “LPS-induced increase in IL-1β” value [5] was “significantly inhibited”, the “LPS-induced increase in TNF-α” value [6, 13] was “significantly inhibited” and the “LPS-induced increase in TNF-α” value [6, 14] was “significantly reduced”. The “LPS-induced production of IFN-γ” value [8] was “insignificantly enhanced”, the “increase of HR” value ([11]; 0.03 μmol) was “up to 78 bpm” and the pressor response ([11]; 0.03 μmol) was “up to 13 mmHg”. The “effect on mean arterial BP and HR” value [11] was “increased mean arterial BP and HR”, the “hypotensive effect of clonidine” value [12] was “antagonized the hypotensive effect of clonidine” and the clonidine-induced bradycardia ([12]; low dose, 0.03 μmol) was “did not inhibit clonidine-induced bradycardia”.
